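1) Cells in 96-well plates. 2) Compound, 48 h, 5 concentrations. 3) Linear interpolation between surrounding doses. 4) Unreached endpoint = highest concentration. Abbreviation: GI50, concentration required for 50% inhibition of growth.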 Calls of active or inactive are those of the source. No stated cut-off is given here; in the data, active = GI50 up to about 1.1 µM and inactive = higher.
Assays:
Experiment in all cases: DTP human tumour cell line panel, 48 h
A498 = test system: A498
BT-549 = test system: BT-549
HL-60 = test system: HL-60
HOP-92 = test system: HOP-92
HT-29 = test system: HT-29
IGROV-1 = test system: IGROV-1
KM12 = test system: KM12
LOX IMVI = test system: LOX IMVI
M14 = test system: M14
MDA-MB-435 = test system: MDA-MB-435
MDA-N = test system: MDA-N
NCI-H226 = test system: NCI-H226
NCI-H460 = test system: NCI-H460
SF-268 = test system: SF-268
SF-539 = test system: SF-539
SK-MEL-28 = test system: SK-MEL-28
SN12C = test system: SN12C
U-251 = test system: U-251
UACC-62 = test system: UACC-62

| Structure (SMILES) | GI50 (A498) | GI50 (BT-549) | GI50 (HL-60) | GI50 (HOP-92) | GI50 (HT-29) | GI50 (IGROV-1) | GI50 (KM12) | GI50 (LOX IMVI) | GI50 (M14) | GI50 (MDA-MB-435) | GI50 (MDA-N) | GI50 (NCI-H226) | GI50 (NCI-H460) | GI50 (SF-268) | GI50 (SF-539) | GI50 (SK-MEL-28) | GI50 (SN12C) | GI50 (U-251) | GI50 (UACC-62) |
| --- | --- | --- | --- | --- | --- | --- | --- | --- | --- | --- | --- | --- | --- | --- | --- | --- | --- | --- | --- |
| CN(C)c1ccc2c3c(c(=O)oc2c1)CCC3 | 29.4 µM (inactive) | > 100 µM (inactive) | 26.9 µM (inactive) | 38.7 µM (inactive) | 44.8 µM (inactive) | 84.1 µM (inactive) | 41.7 µM (inactive) | 40.6 µM (inactive) | 92.3 µM (inactive) | 57.9 µM (inactive) | 97.9 µM (inactive) | 85.5 µM (inactive) | 83.9 µM (inactive) | 34.8 µM (inactive) | > 100 µM (inactive) | > 100 µM (inactive) | > 100 µM (inactive) | 88.3 µM (inactive) | 29.4 µM (inactive) |
| CCCC(=O)O[C@H]1C=C2C[C@@]34SS[C@]5(CC6=C[C@H](OC(C)=O)[C@@H]7O[C@@H]7[C@H]6N5C3=O)C(=O)N4[C@@H]2[C@H]2O[C@H]21 | 0.0279 µM (active) | 0.021 µM (active) | 0.0644 µM (active) | 0.02 µM (active) | 0.00569 µM (active) | 0.0168 µM (active) | 0.184 µM (active) | 0.0208 µM (active) | 0.0129 µM (active) | 0.0127 µM (active) | 0.00817 µM (active) | 0.0766 µM (active) | 0.0218 µM (active) | 0.00775 µM (active) | 0.0194 µM (active) | 0.0251 µM (active) | 0.00567 µM (active) | 0.00822 µM (active) | 0.0225 µM (active) |
| O=C1c2cccnc2-c2nccc3ccnc1c23 | 5 µM (inactive) | 1.43 µM (inactive) | 0.0248 µM (active) | 0.687 µM (active) | 0.575 µM (active) | 0.548 µM (active) | 1.54 µM (inactive) | 0.418 µM (active) | 1.02 µM (active) | 0.219 µM (active) | 0.2 µM (active) | 1.58 µM (inactive) | 0.0583 µM (active) | 1.11 µM (active) | 1.5 µM (inactive) | 1.2 µM (inactive) | 1.04 µM (active) | 1.05 µM (active) | 0.601 µM (active) |
| O=C(O)C(Br)C(Br)C(=O)O (stereo not drawn) | > 100 µM (inactive) | > 100 µM (inactive) | > 100 µM (inactive) | > 100 µM (inactive) | > 100 µM (inactive) | > 100 µM (inactive) | > 100 µM (inactive) | > 100 µM (inactive) | > 100 µM (inactive) | > 100 µM (inactive) | > 100 µM (inactive) | > 100 µM (inactive) | > 100 µM (inactive) | > 100 µM (inactive) | > 100 µM (inactive) | > 100 µM (inactive) | > 100 µM (inactive) | > 100 µM (inactive) | > 100 µM (inactive) |
| CCCCCCCCCCCCCCCC(=O)N(CCCCCCCCCCC(=O)O)CC(O)C(O)C(OC1OC(CO)C(O)C(O)C1O)C(O)CO (stereo not drawn) | > 100 µM (inactive) | 25.4 µM (inactive) | 22.6 µM (inactive) | 41.3 µM (inactive) | 22.8 µM (inactive) | 60.8 µM (inactive) | 18.8 µM (inactive) | 19.5 µM (inactive) | 20.7 µM (inactive) | 49.4 µM (inactive) | 34.7 µM (inactive) | > 100 µM (inactive) | > 100 µM (inactive) | 21.3 µM (inactive) | 21.3 µM (inactive) | 18.5 µM (inactive) | 20.5 µM (inactive) | 18 µM (inactive) | 18.9 µM (inactive) |
| CN(CCCNC(=O)c1n[nH]c2c1ccc1ccccc12)CCCNC(=O)c1n[nH]c2c1ccc1ccccc12 | 17.8 µM (inactive) | 15.6 µM (inactive) | 1.67 µM (inactive) | 14.6 µM (inactive) | 14.6 µM (inactive) | 16.5 µM (inactive) | 16.9 µM (inactive) | 12.5 µM (inactive) | 4.3 µM (inactive) | 2.62 µM (inactive) | 2.14 µM (inactive) | 13.4 µM (inactive) | 18 µM (inactive) | 14.7 µM (inactive) | 11 µM (inactive) | 2.09 µM (inactive) | 16.3 µM (inactive) | 14.8 µM (inactive) | 9.91 µM (inactive) |
| CC(=O)Oc1ccc2c(c1)CC[C@@H]1C2[C@@H](O[N+](=O)[O-])C[C@@]2(C)C1CC[C@@H]2O (stereo partly drawn) | 31.2 µM (inactive) | 62.4 µM (inactive) | 9.2 µM (inactive) | > 88.1 µM (inactive) | 30.8 µM (inactive) | 55.3 µM (inactive) | 29.9 µM (inactive) | 27.7 µM (inactive) | 28.3 µM (inactive) | 7.31 µM (inactive) | 5.83 µM (inactive) | 48.8 µM (inactive) | 35.3 µM (inactive) | 32.6 µM (inactive) | 25.6 µM (inactive) | 48.9 µM (inactive) | 34.5 µM (inactive) | 27.6 µM (inactive) | 26.5 µM (inactive) |

— ChEMBL document CHEMBL1201862, “PubChem BioAssay data set” (2004)
